Like-named read-outs stand apart in the source and are kept apart here.
Target: T1, LRRK2 (Homo sapiens, UniProt Q5S007, G2019S)
T1 construct: purchased Invitrogen PV4882 (lot 567054A)
Assay: In Vitro LRRK2 Assay (LabChip 3000, fluorescently-labeled peptide substrate, ATP)
Format: biochemical
Procedure, shortened: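 Read-out was LabChip capillary electrophoresis, resolving phospho- from non-phospho-peptide by fluorescence intensity. The kinase reaction combined enzyme, ATP, test compound and labeled peptide (4 μM working dilution) for 2 h in darkness before stop solution. Values were reported as Ki, from a tight-binding model with Et, S and Km, or as IC50 or percent inhibition.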

[1] = read-out: LRRK2 Ki (KI), Table 8
[2] = Table 9, LRRK2 Ki (micromolar), read-out: LRRK2 Ki (KI)
[3] = read-out: LRRK2 Ki (KI), Table 7
[4] = Table 10, LRRK2 Ki (micromolar), read-out: LRRK2 Ki (KI)

T1 sequence (Q5S007 whole entry G2019S): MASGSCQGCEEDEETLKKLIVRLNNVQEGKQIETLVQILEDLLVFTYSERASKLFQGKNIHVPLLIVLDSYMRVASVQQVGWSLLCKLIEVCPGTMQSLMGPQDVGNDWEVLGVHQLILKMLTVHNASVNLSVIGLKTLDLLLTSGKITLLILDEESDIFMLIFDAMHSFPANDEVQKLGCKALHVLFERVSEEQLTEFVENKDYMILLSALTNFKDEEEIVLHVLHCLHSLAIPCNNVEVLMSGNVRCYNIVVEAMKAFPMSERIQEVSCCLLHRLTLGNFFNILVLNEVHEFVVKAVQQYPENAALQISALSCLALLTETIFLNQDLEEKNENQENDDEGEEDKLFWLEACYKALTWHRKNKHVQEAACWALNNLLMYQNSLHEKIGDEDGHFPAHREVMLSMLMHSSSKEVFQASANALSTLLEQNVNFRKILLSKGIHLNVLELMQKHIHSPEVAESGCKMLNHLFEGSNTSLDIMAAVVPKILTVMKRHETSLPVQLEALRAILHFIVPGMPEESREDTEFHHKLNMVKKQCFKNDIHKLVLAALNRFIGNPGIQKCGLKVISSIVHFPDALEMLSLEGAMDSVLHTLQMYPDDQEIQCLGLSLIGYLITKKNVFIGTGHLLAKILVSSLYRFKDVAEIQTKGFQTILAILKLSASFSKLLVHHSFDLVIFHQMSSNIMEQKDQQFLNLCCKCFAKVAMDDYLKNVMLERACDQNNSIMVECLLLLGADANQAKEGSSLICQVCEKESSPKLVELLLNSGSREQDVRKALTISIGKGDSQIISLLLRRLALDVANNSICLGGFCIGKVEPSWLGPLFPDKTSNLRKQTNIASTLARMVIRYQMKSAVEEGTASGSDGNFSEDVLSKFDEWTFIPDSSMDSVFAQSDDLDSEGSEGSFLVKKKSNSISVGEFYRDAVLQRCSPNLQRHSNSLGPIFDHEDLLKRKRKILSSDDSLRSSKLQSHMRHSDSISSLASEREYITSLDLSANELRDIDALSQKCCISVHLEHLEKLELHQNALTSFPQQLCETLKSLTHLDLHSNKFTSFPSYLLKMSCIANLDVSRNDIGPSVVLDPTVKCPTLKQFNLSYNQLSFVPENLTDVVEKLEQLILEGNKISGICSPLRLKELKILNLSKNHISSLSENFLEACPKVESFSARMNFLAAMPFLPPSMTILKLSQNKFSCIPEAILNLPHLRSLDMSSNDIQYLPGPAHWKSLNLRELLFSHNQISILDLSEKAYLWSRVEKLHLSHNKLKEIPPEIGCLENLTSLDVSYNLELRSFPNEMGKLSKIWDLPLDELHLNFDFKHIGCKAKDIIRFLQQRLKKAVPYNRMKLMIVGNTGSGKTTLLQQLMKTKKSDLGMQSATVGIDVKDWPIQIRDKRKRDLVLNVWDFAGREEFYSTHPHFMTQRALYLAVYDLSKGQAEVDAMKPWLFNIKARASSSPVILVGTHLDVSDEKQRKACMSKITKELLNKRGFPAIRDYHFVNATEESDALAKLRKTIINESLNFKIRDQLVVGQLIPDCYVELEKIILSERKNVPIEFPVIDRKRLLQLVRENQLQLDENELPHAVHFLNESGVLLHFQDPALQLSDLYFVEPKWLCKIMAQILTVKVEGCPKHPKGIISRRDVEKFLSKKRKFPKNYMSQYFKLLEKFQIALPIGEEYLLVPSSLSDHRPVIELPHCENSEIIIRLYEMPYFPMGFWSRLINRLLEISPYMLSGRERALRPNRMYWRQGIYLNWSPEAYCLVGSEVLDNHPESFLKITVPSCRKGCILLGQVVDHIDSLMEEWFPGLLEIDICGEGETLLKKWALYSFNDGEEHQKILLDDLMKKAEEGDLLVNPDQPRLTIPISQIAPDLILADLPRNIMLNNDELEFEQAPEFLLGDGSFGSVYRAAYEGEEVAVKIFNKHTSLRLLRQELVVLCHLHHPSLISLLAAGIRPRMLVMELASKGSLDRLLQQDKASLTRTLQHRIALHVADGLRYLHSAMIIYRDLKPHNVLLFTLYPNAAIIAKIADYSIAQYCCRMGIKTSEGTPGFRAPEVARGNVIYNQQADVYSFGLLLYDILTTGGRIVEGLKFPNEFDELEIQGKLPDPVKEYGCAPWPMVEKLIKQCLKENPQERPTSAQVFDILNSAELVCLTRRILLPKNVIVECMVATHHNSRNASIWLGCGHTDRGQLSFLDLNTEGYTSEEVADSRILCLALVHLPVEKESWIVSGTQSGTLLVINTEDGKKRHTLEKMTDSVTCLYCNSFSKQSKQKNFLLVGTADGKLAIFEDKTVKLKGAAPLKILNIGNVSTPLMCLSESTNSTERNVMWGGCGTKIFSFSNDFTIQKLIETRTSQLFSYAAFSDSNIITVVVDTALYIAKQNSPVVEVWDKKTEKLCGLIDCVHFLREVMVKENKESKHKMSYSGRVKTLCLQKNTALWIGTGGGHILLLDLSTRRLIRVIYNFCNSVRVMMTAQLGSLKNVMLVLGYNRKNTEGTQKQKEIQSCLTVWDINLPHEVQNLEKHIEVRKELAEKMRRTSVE

CCNc1nc(Nc2cnn(C3CCN(C(C)=O)CC3)c2C)ncc1C(F)(F)F [Example 137, 1-(4-(4-(4-(ethylamino)-5-(trifluoromethyl)pyrimidin-2-ylamino)-5-methyl-1H-pyrazol-1-yl)piperidin-1-yl)ethanone]
Ki [1]: 0.4 nM

CCCn1ncc(Nc2ncc(Br)c(NC)n2)c1C [Example 259, 5-Bromo-N4-methyl-N2-(5-methyl-1-propyl-1H-pyrazol-4-yl)-pyrimidine-2,4-diamine]
Ki [1]: 5.7 nM

CCS(=O)(=O)n1ncc(Nc2ncc(C(F)(F)F)c(NC)n2)c1C [Example 287, N2-(1-Ethanesulfonyl-5-methyl-1H-pyrazol-4-yl)-N4-methyl-5-trifluoromethyl-pyrimidine-2,4-diamine]
Ki [1]: 7.2 nM

CNc1nc(Nc2cnn(C3CCC(F)(F)CC3)c2C)ncc1C#N [Example 381, 2-(1-(4,4-difluorocyclohexyl)-5-methyl-1H-pyrazol-4-ylamino)-4-(methylamino) pyrimidine-5-carbonitrile]
Ki [2]: 11 nM

CNc1nc(Nc2nn(C3CCN(C)CC3)cc2C)ncc1C(F)(F)F [Example 141, N4-methyl-N2-(4-methyl-1-(1-methylpiperidin-4-yl)-1H-pyrazol-3-yl)-5-(trifluoromethyl) pyrimidine-2,4-diamine]
Ki [1]: 41 nM

CNc1nc(Nc2cn(C3CN(CC(F)(F)F)C3)nc2C)ncc1C(F)(F)F [Example 202, N4-methyl-N2-(3-methyl-1-(1-(2,2,2-trifluoroethyl)azetidin-3-yl)-1H-pyrazol-4-yl)-5-(trifluoromethyl) pyrimidine-2,4-diamine]
Ki [1]: 34 nM

CNc1nc(Nc2cn(C3COC3)nc2C)ncc1C#N [Example 389, 4-Methylamino-2-(3-methyl-1-oxetan-3-yl-1H-pyrazol-4-ylamino)-pyrimidine-5-carbonitrile]
Ki [2]: 37.2 nM

CCNc1nc(Nc2cnn([C@H]3CCCN(C4COC4)C3)c2C)ncc1C(F)(F)F [Example 307, N4-Ethyl-N2-[5-methyl-1-((S)-1-oxetan-3-yl-piperidin-3-yl)-1H-pyrazol-4-yl]-5-trifluoromethyl-pyrimidine-2,4-diamine]
Ki [1]: 0.3 nM

CNc1nc(Nc2cnn(C3CCOCC3)c2C)ncc1C#N [Example 361, 2-(5-methyl-1-(tetrahydro-2H-pyran-4-yl)-1H-pyrazol-4-ylamino)-4-(methylamino) pyrimidine-5-carbonitrile]
Ki [2]: 8.7 nM

CNc1nc(Nc2cn(-c3ccc(Cl)cc3)nc2C)ncc1Br [Example 260, 5-Bromo-N2-[1-(4-chloro-phenyl)-3-methyl-1H-pyrazol-4-yl]-N4-methyl-pyrimidine-2,4-diamine]
Ki [1]: 0.3 nM

Cc1c(Nc2ncc(Cl)c(OC3COC3)n2)cnn1C [Example 62, 5-chloro-N-(1,5-dimethyl-1H-pyrazol-4-yl)-4-(oxetan-3-yloxy)pyrimidin-2-amine]
Ki [3]: 39 nM

COc1nc(Nc2cn(-c3ccc(S(C)(=O)=O)cc3)nc2C)ncc1Cl [Example 75, (5-Chloro-4-methoxy-pyrimidin-2-yl)-[1-(4-methanesulfonyl-phenyl)-3-methyl-1H-pyrazol-4-yl]-amine]
Ki [3]: 2.2 nM

CCNc1nc(Nc2cn([C@H]3CCCN(C)C3)nc2C)ncc1C(F)(F)F [Example 312, N4-Ethyl-N2-[3-methyl-1-((S)-1-methyl-piperidin-3-yl)-1H-pyrazol-4-yl]-5-trifluoromethyl-pyrimidine-2,4-diamine]
Ki [1]: 15.6 nM

CNc1nc(Nc2cn(C3CCN(CC(F)(F)F)CC3)nc2C)ncc1Br [Example 94, 5-bromo-N4-methyl-N2-(3-methyl-1-(1-(2,2,2-trifluoroethyl)piperidin-4-yl)-1H-pyrazol-4-yl)pyrimidine-2,4-diamine]
Ki [1]: 13 nM

CCNc1nc(Nc2cn(C(C)(C)c3ccnn3C)nc2C)ncc1C(F)(F)F [Example 343, N4-ethyl-N2-(3-methyl-1-(2-(1-methyl-1H-pyrazol-5-yl)propan-2-yl)-1H-pyrazol-4-yl)-5-(trifluoromethyl) pyrimidine-2,4-diamine]
Ki [1]: 0.3 nM

CNc1nc(Nc2cn(CC3CC3)nc2C)ncc1C(F)(F)F [Example 166, N2-(1-(cyclopropyl-methyl)-3-methyl-1H-pyrazol-4-yl)-N4-methyl-5-(trifluoromethyl) pyrimidine-2,4-diamine]
Ki [1]: 4.5 nM

CCNc1nc(Nc2cn(-c3ccc(C#N)cc3)nc2C)ncc1C(F)(F)F [Example 265, 4-[4-(4-Ethylamino-5-trifluoromethyl-pyrimidin-2-ylamino)-3-methyl-pyrazol-1-yl]-benzonitrile]
Ki [1]: 4.8 nM

CCNc1nc(Nc2cnn(S(=O)(=O)C(C)C)c2C)ncc1C(F)(F)F [Example 279, N4-Ethyl-N2-[5-methyl-1-(propane-2-sulfonyl)-1H-pyrazol-4-yl]-5-trifluoromethyl-pyrimidine-2,4-diamine]
Ki [1]: 4.7 nM

COc1nc(Nc2cn(C3COC3)nc2C)ncc1Cl [Example 18, 5-Chloro-4-methoxy-N-(3-methyl-1-(oxetan-3-yl)-1H-pyrazol-4-yl)pyrimidin-2-amine]
Ki [3]: 22 nM

CCc1nn(C(C)(C)C#N)cc1Nc1ncc(C(F)(F)F)c(NC)n1 [Example 410, 2-(3-ethyl-4-(4-(methylamino)-5-(trifluoromethyl)pyrimidin-2-ylamino)-1H-pyrazol-1-yl)-2-methylpropanenitrile]
Ki [4]: 10 nM

CCCn1ncc(Nc2ncc(C(F)(F)F)c(NC)n2)c1C [Example 119, N4-methyl-N2-(5-methyl-1-propyl-1H-pyrazol-4-yl)-5-(trifluoromethyl) pyrimidine-2,4-diamine]
Ki [1]: 5.6 nM

CCN1CCC(n2ncc(Nc3ncc(C(F)(F)F)c(NC)n3)c2Cl)C(F)C1 (stereo not shown) [Example 242, N2-(5-chloro-1-(1-ethyl-3-fluoropiperidin-4-yl)-1H-pyrazol-4-yl)-N4-methyl-5-(trifluoromethyl) pyrimidine-2,4-diamine]
Ki [1]: 2.1 nM

CNc1nc(Nc2cn(CC(O)C(C)C)nc2C)ncc1C(F)(F)F (stereo not shown) [Example 321, 3-Methyl-1-[3-methyl-4-(4-methylamino-5-trifluoromethyl-pyrimidin-2-ylamino)-pyrazol-1-yl]-butan-2-ol]
Ki [1]: 10.8 nM

CNc1nc(Nc2cnn(C3CCN(C(=O)C(C)C)CC3)c2C)ncc1C(F)(F)F [Example 175, 2-methyl-1-(4-(5-methyl-4-(4-(methylamino)-5-(trifluoromethyl)pyrimidin-2-ylamino)-1H-pyrazol-1-yl)piperidin-1-yl)propan-1-one]
Ki [1]: 6.8 nM

CCNc1nc(Nc2cnn(C)c2C2CCC2)ncc1C(F)(F)F [Example 280, N2-(5-Cyclobutyl-1-methyl-1H-pyrazol-4-yl)-N4-ethyl-5-trifluoromethyl-pyrimidine-2,4-diamine]
Ki [1]: 3.6 nM

CNc1nc(Nc2cnn(C3CCOC3)c2C)ncc1C(F)(F)F (stereo not shown) [Example 150, N4-methyl-N2-(5-methyl-1-(tetrahydrofuran-3-yl)-1H-pyrazol-4-yl)-5-(trifluoromethyl) pyrimidine-2,4-diamine]
Ki [1]: 5.1 nM

CNc1nc(Nc2cn(-c3ccccn3)nc2C)ncc1C#N [Example 370, 2-(3-methyl-1-(pyridin-2-yl)-1H-pyrazol-4-ylamino)-4-(methylamino) pyrimidine-5-carbonitrile]
Ki [2]: 41.5 nM

CCn1cc(Nc2ncc(C#N)c(NC)n2)c(C)n1 [Example 353, 2-(1-ethyl-3-methyl-1H-pyrazol-4-ylamino)-4-(methylamino) pyrimidine-5-carbonitrile]
Ki [2]: 36 nM

CCNc1nc(Nc2cnn(C(C)(C)C(=O)NC)c2C)ncc1C(F)(F)F [Example 448, 2-[4-(4-Ethylamino-5-trifluoromethyl-pyrimidin-2-ylamino)-5-methyl-pyrazol-1-yl]-N-methyl-isobutyramide]
Ki [4]: 15.3 nM

CCCCn1ncc(Nc2ncc(C(F)(F)F)c(NC)n2)c1C [Example 127, N2-(1-butyl-5-methyl-1H-pyrazol-4-yl)-N4-methyl-5-(trifluoromethyl) pyrimidine-2,4-diamine]
Ki [1]: 0.3 nM

CCNc1nc(Nc2cnn(C3CCN(C(=O)C4CC4)CC3)c2C)ncc1C(F)(F)F [Example 184, cyclopropyl(4-(4-(4-(ethylamino)-5-(trifluoromethyl)pyrimidin-2-ylamino)-5-methyl-1H-pyrazol-1-yl)piperidin-1-yl)methanone]
Ki [1]: 4.7 nM

COc1nc(Nc2cn(C)nc2C)ncc1Cl [Example 15, 5-Chloro-N-(1,3-dimethyl-1H-pyrazol-4-yl)-4-methoxy-pyrimidin-2-amine]
Ki [3]: 14.4 nM

CCNc1nc(Nc2cn(-c3ccc(C(=O)N(C)C)cc3)nc2C)ncc1C(F)(F)F [Example 263, 4-[4-(4-Ethylamino-5-trifluoromethyl-pyrimidin-2-ylamino)-3-methyl-pyrazol-1-yl]-N,N-dimethyl-benzamide]
Ki [1]: 1.8 nM

CC(C)n1cc(Nc2ncc(Cl)c(OC3CCOCC3)n2)cn1 [Example 11, 5-Chloro-N-(1-isopropyl-1H-pyrazol-4-yl)-4-(tetrahydro-2H-pyran-4-yloxy)pyrimidin-2-amine]
Ki [3]: 33 nM

CNc1nc(Nc2cn(C3CC(C)OC(C)C3)nc2C)ncc1C(F)(F)F (stereo not shown) [Example 191, N2-(1-(2,6-dimethyltetrahydro-2H-pyran-4-yl)-3-methyl-1H-pyrazol-4-yl)-N4-methyl-5-(trifluoromethyl) pyrimidine-2,4-diamine]
Ki [1]: 84.6 nM

CNc1nc(Nc2cn(CC(C)(C)O)nc2C(F)(F)F)ncc1C(F)(F)F [Example 198, 2-methyl-1-(4-(4-(methylamino)-5-(trifluoromethyl)pyrimidin-2-ylamino)-3-(trifluoromethyl)-1H-pyrazol-1-yl)propan-2-ol]
Ki [1]: 27 nM

CNc1nc(Nc2cnn(C)c2CF)ncc1C(F)(F)F [Example 330, N2-(5-Fluoromethyl-1-methyl-1H-pyrazol-4-yl)-N4-methyl-5-trifluoromethyl-pyrimidine-2,4-diamine]
Ki [1]: 24.5 nM
